Test results from patent publication US20240352419A1, “METHODS AND COMPOSITIONS FOR DIFFERENTIATION OF PLURIPOTENT STEM CELLS AND DERIVED HEMATOPOIETIC LINEAGE CELLS” (NUWACELL BIOTECHNOLOGIES CO., LTD., priority 2022, published 2024).

How the values were obtained:
[1] = tested on: hiPSCs; assay: Directed differentiation of hiPSCs into HE, HP and iNK cells (flow cytometry KDR, CD34, CD56); assay type: cell-based, human; details: for output of CD34+ HP cells / output of CD56+ iNK cells: added during Stage 1-4 (XAV939 5 μM, SB431542 6 μM); for output of CD34+ HP cells: Day 10, vs control, FIG. 8A; for output of CD56+ iNK cells: Day 25, vs control, FIGS. 8B and 8C
Procedure: hiPSCs were prepared as described in CN108373998B. On Day −1, Embryoid body (EB) formation (Stage 1-1) was carried out by placing individualized hiPSCs in E8 medium containing 10 μM Blebbistatin in T25 flasks on a bellydancer and culture overnight. On Day 0, lateral mesoderm differentiation (Stage 1-2) was initiated by changing the medium to a Stage 1-2 differentiation medium comprising indicated basal medium (see Table 2.1) and supplemented with BMP4 (25 ng/ml), VEGF (50 ng/mL), bFGF (0.5 ng/ml) and CHIR99021 (4 μM) for 2 days. On Day 2, lateral mesoderm differentiation (Stage 1-3) continued for 1 day in a Stage 1-3 differentiation medium comprising indicated basal medium and supplemented with BMP4 (25 ng/mL), VEGF (50 ng/ml) and bFGF (0.5 ng/ml) and CHIR99021 (1 μM). On Day 3, HE specification (Stage 1-4) was initiated by adding a Stage 1-4 differentiation medium comprising indicated basal medium and supplemented with VEGF (50 ng/mL), bFGF (5 ng/mL), XAV939 (5 μM) for 1 day. On Day 4 (the end of Stage 1-4), EBs were dissociated into single cells and stained with KDR-APC antibody, the percentage of KDR^+ cells were detected by flow cytometry. HP differentiation (Stage 1-5) in was initiated by adding a Stage 1-5 differentiation medium comprising indicated basal medium and supplemented with SCF (10 ng/ml), Flt3L (10 ng/ml), VEGF (15 ng/ml) and bFGF (5 ng/mL) for 3 days. On Day 7 (the end of Stage 1-5), EBs were dissociated into single cells and stained with CD34− APC antibody, the percentage of CD34^+ HP cells was detected by flow cytometry. To initiate the differentiation from HP cells into iNK cells (Stage 2), EBs were collected and seeded in 6-well-plates coated with matrix proteins, DLL4 and VCAM1, in a Stage 2 differentiation medium comprising NKSFM and supplemented with SCF (20 ng/mL), Flt3L (10 ng/mL), IL-7 (25 ng/mL, Peprotech), IL-3 (5 ng/mL, Peprotech), IL-2 (700 IU/mL), IL-15 (10 ng/mL, Peprotech) for 14 days. On Day 21 (Stage 2-wk2), derived cells were counted and stained with CD56-PE antibody, the percentage of CD56^+ iNK cells were detected by flow cytometry. […] This improvement is attributed to the addition of NAM, PLT and Heparin sodium in NKSFM as compared with IF-4.
hiPSCs were prepared as described in CN108373998B. Basal medium used during Stage 2 of differentiation was also evaluated. On Day-1, Embryoid body (EB) formation (Stage 1-1) was carried out by placing individualized hiPSCs in E8 medium containing 10 μM Blebbistatin in T25 flasks on a shaker and cultured overnight. On Day 0, lateral mesoderm differentiation (Stage 1-2) was initiated by changing the medium to a Stage 1-2 differentiation medium comprising IF-4 basal medium and supplemented with BMP4 (25 ng/mL), VEGF (15 ng/mL), bFGF (0.5 ng/mL) and CHIR99021 (4 μM) for 2 days. On Day 2, lateral mesoderm differentiation (Stage 1-3) continued for 1 day in a Stage 1-3 differentiation medium comprising IF-4 basal medium and supplemented with BMP4 (25 ng/ml), VEGF (15 ng/mL) and bFGF (0.5 ng/mL) and CHIR99021 (4 μM). On Day 3, HE specification (Stage 1-4) was initiated by adding a Stage 1-4 differentiation medium comprising IF-4 basal medium and supplemented with VEGF (15 ng/mL), bFGF (5 ng/ml), SB431542 (6 μM) for 1 day. On Day 4 (the end of Stage 1-4), EBs were dissociated into single cells and stained with KDR-APC antibody, the percentage of KDR+ cells was detected by flow cytometry. HP differentiation (Stage 1-5) in was initiated by adding a Stage 1-5 differentiation medium comprising NKSFM and supplemented with SCF (50 ng/ml), Flt3L (10 ng/mL), VEGF (15 ng/mL) and bFGF (5 ng/mL) for 5 days. […]

[2] = tested on: PBNK cells; assay: Expansion of PBNK cells from PBMCs (expansion fold, CD56+CD3- percentage by flow cytometry); assay type: cell-based; details: effect of NAM concentration (0-5 mM) in basal medium
Procedure: The effect of the concentration of nicotinamide (NAM) in an exemplary basal medium on NK cell expansion was evaluated. The above basal medium comprised the following components: IMDM (Sigma):RPMI1640 (Gibco) (50%: 50%); about 1.3 ng/ml of Cupric sulfate, about 3 μM of Ferric sulfate, about 0.432 μg/mL of Zinc sulfate, about 1˜50 ng/ml of Na Selenite, about 110 μg/mL of Sodium pyruvate, 0.1˜20 μg/mL of Insulin, 1˜200 μg/mL of Transferrin, about 1% (v/v) of GlutaMAX-1, 0.1˜20 mg/mL of HSA, 1˜400 μM of MTG, about 80 μg/mL of Ascorbic acid and indicated concentration of NAM. Peripheral blood mononuclear cells (PBMCs) were isolated by density gradient centrifugation using Ficoll-Paque. On Day 0, PBMCs were plated at 1×10^6 cells/mL in a 48-well-plate in the basal medium with NAM (either 0, 1, 2, 2.5, 3, 3.5, 4, or 5 mM) and stimulated with the following reagents for 3 days: immobilized CD16 antibody (Biolegend, 302014) (135 ng/cm^2), IL-2 (700 IU/mL), IL-15 (10 ng/ml) and OK432 (0.01 KE/mL). On day 3, cells were re-suspended in the above basal medium supplemented with IL-2 (700 IU/mL) and IL-15 (10 ng/mL). Fresh medium was added every other day to maintain cell density below 2×10^6 cells/mL. Cells were collect on Day 14 and stained with CD56-PE and CD3-PerCP-Cy5.5 antibodies, the percentage of CD56^+CD3^− NK cells was analyzed by flow cytometry.
The effect of heparin sodium concentration in an exemplary NKSFM on NK cell expansion was also evaluated. NKSFM comprised the following components: IMDM (Sigma):DMEM/F12 (Gibco) (50%: 50%); about 20 μM of Ethanolamine, about 1˜50 ng/ml of Na Selenite, about 110 μg/mL of Sodium pyruvate, 0.1˜20 μg/mL of Insulin, 1˜200 μg/mL of Transferrin, about 1% (v/v) of GlutaMAX-1, 0.1˜20 mg/mL of Human serum albumin, 1˜400 μM of MTG, about 80 μg/mL of Ascorbic acid, about 1˜5 mM of NAM, 4% (v/v) of PLT, and indicated concentration of heparin sodium. PBMCs were isolated by density gradient centrifugation using Ficoll-Paque. On Day 0, PBMCs were plated at 1×10^6 cells/mL in a 48-well-plate in NKSFM with heparin sodium (0, 0.5, 1, 3, 10, 30, or 50 μg/mL) and stimulated with the following reagents for 3 days: immobilized CD16 antibody (Biolegend, 302014) (135 ng/cm^2), OK432 (0.01 KE/mL), NeoIL-2 (50 ng/ml), IL-12 (10 ng/mL), IL-18 (50 ng/mL). […] Cells were collect on Day 13 and stained with CD56-PE and CD3-PerCP-Cy5.5 antibodies, the percentage of CD56^+CD3^− NK cells was analyzed by flow cytometry. The specific lysis of K562 tumor cells by NK cells were assessed by CFSE/7-AAD cytotoxicity assay. […] After incubation for 4 hours, cells were stained with 7-AAD (Live/dead staining) and analyzed with flow cytometry.
The effect of PLT percentage (v/v) in an exemplary NKSFM on NK cell expansion was evaluated. […]

[3] = higher VEGF concentration during Stage 1-5

`NC(=O)c1ccc(-c2nc(-c3ccc4c(c3)OCO4)c(-c3ccccn3)[nH]2)cc1` [SB431542] was tested, and the “output of CD34+ HP cells” value [1] was “improvement in increasing CD34^+ HP cell production at a certain degree” and the “output of CD56+ iNK cells” value [1] was “does not show any improvement”.
`NC(=O)c1cccnc1` [NAM, nicotinamide] was tested, and the “NK cell expansion fold” value ([2]; Day 14, FIG. 2A) was “significantly impacts” and the “percentage of CD56+CD3− NK cells” value ([2]; Day 14, FIG. 2B) was “minimal effects”.
For `Oc1nc(-c2ccc(C(F)(F)F)cc2)nc2c1CSCC2` [XAV939], the “output of CD34+ HP cells” value [1] was “significantly promotes” and the “output of CD56+ iNK cells” value [1] was “significantly promotes”.
With `Cc1c[nH]c(-c2cnc(NCCNc3ccc(C#N)cn3)nc2-c2ccc(Cl)cc2Cl)n1` [CHIR99021] the “differentiation into CD34+ HP cells” value ([1]; higher concentration of CHIR99021 (5-8 μM) during Stage 1-2, FIG. 9A) was “generally more advantageous”, the “differentiation into CD56+ iNK cells” value ([1]; higher concentration of CHIR99021 (5-8 μM) during Stage 1-2, FIGS. 9B and 9C) was “somewhat disadvantageous” and the “differentiation into CD34+ HP cells” value ([1]; lower concentration of CHIR99021 (0-4 μM) during Stage 1-3, FIG. 10A) was “somewhat disadvantageous”. The “differentiation into CD56+ iNK cells” value ([1]; lower concentration of CHIR99021 (0-4 μM) during Stage 1-3, FIGS. 10B and 10C) was “generally more advantageous”.
With VEGF the “percentage of KDR+ HE cells” value ([1]; different VEGF concentration (15-100 ng/mL) in Stage 1, FIG. 11A) was “minimal effects”, the “percentage of CD34+ HP cells” value ([1]; different VEGF concentration (15-100 ng/mL) in Stage 1, FIG. 11B) was “significantly impacts” and the “efficiency of further differentiation into iNK cells” value ([1]; different VEGF concentration (15-100 ng/mL) in Stage 1, cell morphology, FIG. 11C) was “significantly impacts”. The “differentiation into HP cells and iNK cells” value ([1]; higher VEGF concentration during Stage 1-2 and Stage 1-3) was “generally beneficial”, the “differentiation into HP cells” value [1, 3] was “generally beneficial” and the “differentiation into iNK cells” value [1, 3] was “but not into iNK cells”. The “HP and iNK cell differentiation” value ([1]; higher concentration of VEGF during Stage 1, especially Stage 1-2, 1-3 and 1-4, FIG. 12) was “significantly improves”.
